“Also recorded” adds a separate entry of the source.
Assays:
[1] = Cell viability, Alamar Blue fluorescence assay in primary cortical cultures; type: cell-based, mice; conditions: mouse, primary cortical neuron cultures from mouse embryos, 72 hours in culture, mean ± standard error, three experiments, read-out: Viability of cortical neurons, % with respect to the control
Description: (§1) In order to perform the experiments of the present invention, one of the following were used: an in vitro cortical neuron model with simultaneous overexpression of tau and β-amyloid obtained from an Alzheimer's disease model in triple transgenic mice (3×Tg−AD or 3×Tg), obtainable by means of the process explained in international application WO2003/053136 and provided by the holders of said application, or an in vitro cortical neuron model obtained from non-transgenic mice (No Tg). The triple transgenic neuronal model presents simultaneous overexpression of the human transgenes for presenilin (PS1M146V), the β-amyloid precursor protein (APPSwe) and the tau protein (tauP301L), which leads to an Alzheimer's model with overexpression of β-amyloid and hyperphosphorylation of tau.
(§2) The primary cortical cultures were obtained from 3×Tg−AD mice embryos of 15-17 days of gestation and the wild cultures were obtained from control non-3×Tg−AD mice embryos of the same strain. The effect of the compound used in this invention on the cell viability was determined by means of a fluorescence assay using the Alamar Blue viability indicator. In order to perform the assay, primary cortical cultures seeded in 96-well plates were used. The neuronal cells were incubated with the compound of the present invention, which was dissolved in dimethyl sulfoxide (DMSO) and added to the culture medium at different concentrations, and the effect thereof on the neuronal viability was determined at different times of treatment in vitro. The maximum concentration of gambierol evaluated in vitro was 20 μM and the concentration of Alamar Blue was 10%. The reaction volume used was 200 μl. The fluorescence was measured at wavelengths of 530 nm (excitation) and 590 nm (emission).

cortical neurons = test: as above; type: cell-based, mice; conditions: up to a concentration of 20 μM
Description: as §1, §2

β-amyloid = test: Western Blot of intracellular β-amyloid (6E10 antibody) in cortical neurons from triple transgenic mice; type: cell-based; conditions: 10 μM gambierol between days 3 and 7 of culture; 3×Tg-AD neocortical cultures
Description: (§3) In order to perform the experiments of the present invention, one of the following were used: an in vitro cortical neuron model with simultaneous overexpression of tau and β-amyloid obtained from an Alzheimer's disease model in triple transgenic mice (3×Tg−AD or 3×Tg), obtainable by means of the process explained in international application WO2003/053136 and provided by the holders of said application, or an in vitro cortical neuron model obtained from non-transgenic mice (No Tg). […]
(§4) In order to determine the effect of the compound of the present invention on the expression of tau and β-amyloid, Western Blot techniques were used. […] For the Western Blot studies, the protein expression was evaluated using the primary antibodies anti-β-amyloid 6E10 at a 1:500 dilution, anti-Tau AT8 (phosphorylated Tau at Ser 202, 1:1000 dilution) and anti-Tau AT100 (phosphorylated Tau at Thr 212 and Ser 214, 1:1000 dilution). […]
(§5) For the Western Blot assays, the neuronal cultures treated with the compound of the present invention were washed with cold PBS and lysed in 50 mM Tris-HCl buffer (pH 7.4), which contains 150 mM NaCl, 1 mM EDTA, 1% Triton X-100, 2 mM DTT, 2.5 mM PMSF, 40 mg/ml aprotinin, 4 mg/ml leupeptin, 5 mM NaF, 1 mM Na3VO4, 1 mg/ml pepstatin A and 1 mg/ml benzamidine. The total protein concentration was determined by Bradford's method, using bovine albumin as the standard. […]

[2] = tested on: phosphorylated Tau at Ser 202; test: Western Blot of phosphorylated tau at Ser 202 (AT8 antibody) in cortical neurons from triple transgenic mice; type: cell-based; conditions: 10 μM gambierol between days 3 and 7 of culture; 3×Tg cultures; p<0.05, n=3
Description: as §3, §4, §5

[3] = tested on: phosphorylated Tau at Thr 212 and Ser 214; test: Western Blot of phosphorylated tau at Thr 212 and Ser 214 (AT100 antibody) in cortical neurons from triple transgenic mice; type: cell-based; conditions: 10 μM gambierol between days 3 and 7 of culture; 3×Tg cultures; p<0.05, n=3
Description: as §3, §4, §5

total tau = test: Western Blot of baseline total tau (Tau46 antibody) in control neurons from non-transgenic mice; type: cell-based
Protocol: (§6) In order to determine the effect of gambierol on the baseline phosphorylation of tau, Western Blot techniques were used. An in vitro cortical nueron model obtained from non-transgenic mice was used. The neuronal cultures and the processing of the samples were performed in the same manner as in the preceding example. The data obtained were corrected with the quantity of β-actin as a function of the protein content of the samples.

[4] = tested on: phosphorylated tau at residue Ser 202; test: Western Blot of baseline phosphorylated tau at Ser 202 in control neurons from non-transgenic mice; type: cell-based
Protocol: as §6

[5] = tested on: extracellular β-amyloid peptide (β-amyloid 1-42 or β-amyloid 1-40); test: ELISA of extracellular β-amyloid in culture medium of cortical neurons; type: cell-based, mice; conditions: triple transgenic cultures treated with gambierol compared to those not treated
Protocol: The levels of extracellular β-amyloid in the culture medium of cortical neurons obtained from triple transgenic mice or from control mice treated with gambierol were determined by means of commercial ELISA kits for the detection of β-amyloid 1-42 or β-amyloid 1-40, following the manufacturer's recommended instructions (Covance). These kits are composed of plates treated with antibodies which capture the β-amyloid peptide at the amino-terminal end thereof. The standards with known quantities of β-amyloid, and the culture medium collected from the neuronal preparations with unknown quantities of β-amyloid, were added to the wells and incubated. The plates were washed in order to eliminate the unbound peptide and incubated for 2 hours in the presence of an antibody that binds to the carboxyl-terminal end of the β-amyloid peptide. Subsequently, the plates were washed and incubated with a peroxidase-conjugated secondary antibody. […] The optical density was measured by the absorbance at 495 nm, and a straight-line pattern was obtained (FIG. 4) with the quantities of β-amyloid added, wherefrom the quantity of β-amyloid in the culture medium collected from the neuronal preparations treated with the compounds of the present invention could be extrapolated (FIG. 5).

[6] = 10 μM gambierol, mean ± standard error, two experiments

C=CC/C=C\C=C/C1OC2CC3OC4CCC5OC6CC7(C)OC8(C)C(O)CC(CCCO)OC8CC7OC6CC5OC4(C)CC3(C)OC2C=CC1(C)O (stereo not drawn) [gambierol]
viability at 72 h, 0.25 μM ([1]; 0.25 μM gambierol): 103 ± 5.2% | viability at 72 h, 0.5 μM ([1]; 0.5 μM gambierol): 110 ± 1.4% | viability at 72 h, 1 μM ([1]; 1 μM gambierol): 105 ± 6.3% | viability at 72 h, 5 μM ([1]; 5 μM gambierol): 106 ± 4.7% | viability at 72 h, 10 μM ([1]; 10 μM gambierol): 105 ± 5.8% | viability at 72 h, 20 μM ([1]; 20 μM gambierol): 102 ± 3.8% | Effect on cell viability of cortical neuronal cultures (in words) (cortical neurons): does not cause a reduction in the viability; also recorded: did not modify the cell viability | Overexpression of intracellular β-amyloid (6E10, Western Blot), in words (β-amyloid): significant decrease; also recorded: reduces | Phosphorylated tau at Ser 202 (AT8, Western Blot), in words [2]: significant decrease; also recorded: reduces | Phosphorylated tau at Thr 212 and Ser 214 (AT100, Western Blot), in words [3]: significant decrease; also recorded: reduces | Baseline quantity of total tau in control neurons (in words) (total tau): did not affect | Baseline levels of total tau in control neurons, % with respect to the control (total tau; [6]): 111 ± 3.9% | Baseline level of phosphorylated tau at residue Ser 202 in control neurons (in words) [4]: did not affect | Levels of phosphorylated tau at residue Ser 202 in control neurons, % with respect to the control [4, 6]: 107 ± 8.1% | Levels of extracellular β-amyloid peptide secreted into the culture medium (in words) [5]: decrease

— patent publication US20120283321A1, “USE OF GAMBIEROL FOR TREATING AND/OR PREVENTING NEURODEGENERATIVE DISEASES RELATED TO TAU AND BETA-AMYLOID” (Universidade De Santiago De Compostela, priority 2009, published 2012)
